The species entered for one assay is Rattus norvegicus. The assay is described as follows: Inhibition of rat microsomal SOAT assessed as reduction in cholesteryl oleate formation from oleoyl co-enzyme A at 10 uM pretreated for 15 mins followed by oleoyl co-enzyme A addition measured after 10 mins by HPTLC method relative to control.
Assay [1] can be described thus: Inhibition of rat microsomal SOAT assessed as reduction in cholesteryl oleate formation from oleoyl co-enzyme A pretreated for 15 mins followed by oleoyl co-enzyme A addition after 10 mins by HPTLC method.

Molecules are shown by their SMILES.

The inhibition is the drop in the measured response relative to a control, in per cent. In general, IC50 refers to the midpoint of a concentration-inhibition curve. In general, pIC50 refers to the IC50 on a negative log10 scale, so that one unit is a factor of ten.

As to `Cc1ccc(-c2nonc2-c2ccc(NC(=O)Nc3ccc(F)cc3F)cc2)cc1`, the inhibition in the assay filed under Rattus norvegicus was 13.5%. In addition, in assay [1], the IC50 was found to be 20.1 µM and the pIC50 was determined as 4.697.
On the same counts, the results for `CCCCCCCCCCCCNC(=O)Nc1ccc(-c2sc(C)nc2-c2ccc(C)cc2)cc1` are 46.2%, 12.2 µM and 4.914.
On to `CCCCNC(=O)Nc1nc(-c2ccc(OC)cc2)c(-c2ccc(NC(C)=O)cc2)s1`, for which the inhibition in the assay filed under Rattus norvegicus came to 39.5%. Further, in assay [1], the half-maximal inhibitory concentration (IC50) stood at 41.3 µM and the pIC50 was found to be 4.384.
For the compound `CCc1cccc(CC)c1NC(=O)Nc1ccc(-c2sc(C)nc2-c2ccc(OC)cc2)cc1`, in the assay listed under Rattus norvegicus, the inhibition was determined as 31.6%. In assay [1], the IC50 is 43.6 µM and the negative logarithm of the IC50 (pIC50) is listed as 4.3606.
On to `COc1ccc(-c2nc(NC(=O)Nc3ccccc3)sc2-c2ccc(Cl)cc2)cc1`, for which the inhibition in the assay filed under Rattus norvegicus came to 56.9%. Further, in assay [1], the half-inhibitory concentration (IC50) came out at 10.7 µM and the pIC50 was determined as 4.972.
Turning to `CCCCCCCCCCCCNC(=O)Nc1ccc(-c2nonc2-c2ccc(F)cc2)cc1`, the inhibition in the assay filed under Rattus norvegicus was 50.1%. Further, in assay [1], the IC50 was 12.4 µM and the pIC50 stood at 4.905.
As to `CCc1cccc(CC)c1NC(=O)Nc1nc(-c2ccc(C)cc2)c(-c2ccc(N)cc2)s1`, in assay [1], the half-maximal inhibitory concentration (IC50) amounted to 103 µM and the pIC50 came out at 3.9863.
Turning to `CCCCNC(=O)Nc1ccc(-c2sc(C)nc2-c2ccc(F)cc2)cc1`, the inhibition in the assay filed under Rattus norvegicus was found to be 59.9%. Besides, in assay [1], the IC50 turned out to be 9.58 µM and the pIC50 was determined as 5.0186.
In the case of `CCc1cccc(CC)c1NC(=O)Nc1ccc(-c2nonc2-c2ccc(F)cc2)cc1`, in the assay filed under Rattus norvegicus, the inhibition amounted to 44.9%. In assay [1], the IC50 is 9.73 µM and the pIC50 was determined as 5.011.
In the case of `COc1ccc(-c2nc(C)sc2-c2ccc(NC(=O)Nc3ccccc3)cc2)cc1`, the inhibition in the assay filed under Rattus norvegicus came out at 11.4%. Moreover, in assay [1], the IC50 worked out at 94.8 µM and the negative logarithm of the IC50 (pIC50) came to 4.0233.
As for `COc1ccc(-c2nc(NC(=O)Nc3ccc(F)cc3F)sc2-c2ccc([N+](=O)[O-])cc2)cc1`, the inhibition in the assay filed under Rattus norvegicus stood at 3.4%.
With `Cc1nc(-c2ccc(Cl)cc2)c(-c2ccc(NC(=O)NCCN3CCOCC3)cc2)s1`, the inhibition in the assay filed under Rattus norvegicus was 12.3%. Besides, in assay [1], the IC50 amounted to 118 µM and the pIC50 turned out to be 3.927.
Turning to `O=C(Nc1ccccc1)Nc1nc(-c2ccccc2)c(-c2ccccc2)s1`, the inhibition in the assay listed under Rattus norvegicus was 10.6%. Moreover, in assay [1], the IC50 amounted to 17.7 µM and the negative-log IC50 (pIC50) is recorded as 4.7512.
`CCCCNC(=O)Nc1nc(-c2ccc(OC)cc2)c(-c2ccc(Cl)cc2)s1`: the inhibition in the assay filed under Rattus norvegicus is 27.6%. In addition, in assay [1], the IC50 came out at 62.9 µM and the pIC50 was 4.2014.
As for `CCCCNC(=O)Nc1nc(-c2ccc(Cl)cc2)c(-c2ccc(NC(C)=O)cc2)s1`, the inhibition in the assay filed under Rattus norvegicus was found to be 3.75%.
As to `COc1ccc(-c2nc(NC(=O)Nc3ccc(F)cc3F)sc2-c2ccc(NC(C)C)cc2)cc1`, the inhibition in the assay filed under Rattus norvegicus is 51.7%. Besides, in assay [1], the IC50 stood at 12.1 µM and the negative-log IC50 (pIC50) was determined as 4.916.
For the compound `COc1ccc(-c2nc(C)sc2-c2ccc(NC(=O)NCCN3CCOCC3)cc2)cc1`, in the assay listed under Rattus norvegicus, the inhibition was 21.5%.
Still for that read-out and setting: for `Cc1nc(-c2ccc(F)cc2)c(-c2ccc(NC(=O)NCCN3CCOCC3)cc2)s1` the value was 29.3%.
The same measure, in the same setting: the value for `COc1ccc(-c2nc(C)sc2-c2ccc(NC(=O)Nc3cc(OC)c(OC)c(OC)c3)cc2)cc1` was 25.4%; that for `CCCCCCCNC(=O)Nc1nc(-c2ccc(OC)cc2)c(-c2ccc([N+](=O)[O-])cc2)s1` was 1.52%.
On the same count and under the same terms, the value for `CCc1cccc(CC)c1NC(=O)Nc1nc(-c2ccc(C)cc2)c(-c2ccc(Cl)cc2)s1` was 1.52%.
For the compound `CCCCCCCCCCCCNC(=O)Nc1ccc(-c2nonc2-c2ccc(C)cc2)cc1`, the inhibition in the assay filed under Rattus norvegicus is 9.15%. Also, in assay [1], the IC50 worked out at 123 µM and the pIC50 is recorded as 3.909.
Regarding `CS(=O)(=O)Nc1ccc(-c2sc(NC(=O)Nc3ccc(F)cc3F)nc2-c2ccc(Cl)cc2)cc1`, the inhibition in the assay filed under Rattus norvegicus worked out at 6.39%.
For `CCc1cccc(CC)c1NC(=O)Nc1nc(-c2ccc(C)cc2)c(-c2ccc([N+](=O)[O-])cc2)s1`, the inhibition in the assay filed under Rattus norvegicus came to 1.03%.
Same read-out and setting: the value for `CS(=O)(=O)Nc1ccc(-c2sc(NC(=O)Nc3ccc(F)cc3F)nc2-c2ccc(F)cc2)cc1` was 18.9%; that for `COc1cc(NC(=O)Nc2ccc(-c3sc(C)nc3-c3ccc(C)cc3)cc2)cc(OC)c1OC` was 21.9%.
Regarding `O=C(Nc1ccc(-c2nonc2-c2ccc(Cl)cc2)cc1)Nc1ccc(F)cc1F`, the inhibition in the assay filed under Rattus norvegicus worked out at 21.2%.
On to `COc1ccc(-c2nc(NC(=O)Nc3ccc(F)cc3F)sc2-c2ccc(NS(C)(=O)=O)cc2)cc1`, for which the inhibition in the assay filed under Rattus norvegicus was 19.6%. Moreover, in assay [1], the IC50 was found to be 19 µM and the pIC50 came out at 4.721.
Regarding `CCCCNC(=O)Nc1nc(-c2ccc(F)cc2)c(-c2ccc(NC(C)=O)cc2)s1`, the inhibition in the assay filed under Rattus norvegicus was determined as 15.4%.
Turning to `CCCCCCCNC(=O)Nc1ccc(-c2nonc2-c2ccc(Cl)cc2)cc1`, the inhibition in the assay listed under Rattus norvegicus came to 4.3%.
Take `CCCCNC(=O)Nc1ccc(-c2sc(C)nc2-c2ccc(OC)cc2)cc1`: the inhibition in the assay filed under Rattus norvegicus amounted to 40%.
For `CCCCNC(=O)Nc1ccc(-c2nonc2-c2ccc(F)cc2)cc1`, the inhibition in the assay listed under Rattus norvegicus was 54.5%. Also, in assay [1], the IC50 was 12.3 µM and the negative logarithm of the IC50 (pIC50) was 4.908.
Regarding `Cc1nc(-c2ccc(F)cc2)c(-c2ccc(NC(=O)Nc3ccccc3)cc2)s1`, the inhibition in the assay filed under Rattus norvegicus came to 16.8%.
Regarding `COc1ccc(-c2nc(C)sc2-c2ccc(NC(=O)Nc3ccc(F)cc3F)cc2)cc1`, in the assay listed under Rattus norvegicus, the inhibition was found to be 22.3%.
On to `CCCCCCCCCCCCNc1ccc(-c2sc(NC(=O)Nc3ccc(F)cc3F)nc2-c2ccc(OC)cc2)cc1`, for which the inhibition in the assay filed under Rattus norvegicus is 1.77%.
On the same count and under the same terms, for `O=C(Nc1nc(-c2ccc(F)cc2)c(-c2ccc([N+](=O)[O-])cc2)s1)Nc1ccc(F)cc1F` the value was 3.59%; for `Cc1nc(-c2ccc(Cl)cc2)c(-c2ccc(NC(=O)Nc3c(C(C)C)cccc3C(C)C)cc2)s1`, 12.6%; for `Cc1nc(-c2ccc(Cl)cc2)c(-c2ccc(NC(=O)Nc3ccccc3)cc2)s1`, 6.88%.
Same read-out and setting: for `Cc1ccc(-c2nc(C)sc2-c2ccc(NC(=O)Nc3c(C(C)C)cccc3C(C)C)cc2)cc1` the value was 11.2%; for `CCCCCCCCCCCCNC(=O)Nc1nc(-c2ccc(F)cc2)c(-c2ccc(Cl)cc2)s1`, 1.91%; for `Cc1nc(-c2ccc(Cl)cc2)c(-c2ccc(NC(=O)Nc3ccc(F)cc3F)cc2)s1`, 1.3%.
`CCCCCCCCCCCCNC(=O)Nc1nc(-c2ccccc2)c(-c2ccccc2)s1`: the inhibition in the assay listed under Rattus norvegicus is 1.2%.
As for `CC(=O)Nc1ccc(-c2sc(NC(=O)Nc3ccc(F)cc3F)nc2-c2ccc(Cl)cc2)cc1`, in the assay listed under Rattus norvegicus, the inhibition worked out at 2.03%.
With `CCCCCCCNC(=O)Nc1ccc(-c2sc(C)nc2-c2ccc(C)cc2)cc1`, in the assay filed under Rattus norvegicus, the inhibition came to 33.4%.
`Cc1ccc(-c2nc(C)sc2-c2ccc(NC(=O)Nc3ccccc3)cc2)cc1`: the inhibition in the assay listed under Rattus norvegicus was 13.4%.
As to `CCCCCCCCCCCCNc1ccc(-c2sc(NC(=O)NCCCC)nc2-c2ccc(OC)cc2)cc1`, the inhibition in the assay listed under Rattus norvegicus turned out to be 3.36%.
As to `Cc1ccc(-c2nc(NC(=O)Nc3ccc(F)cc3F)sc2-c2ccc([N+](=O)[O-])cc2)cc1`, the inhibition in the assay filed under Rattus norvegicus came to 3.86%.
`CCCCCCCCCCCCNC(=O)Nc1ccc(-c2nonc2-c2ccc(Cl)cc2)cc1`: the inhibition in the assay listed under Rattus norvegicus was 18.5%.
For `CCCCNC(=O)Nc1nc(-c2ccc(F)cc2)c(-c2ccc(Cl)cc2)s1`, in the assay listed under Rattus norvegicus, the inhibition turned out to be 3.3%.
Consider `Cc1ccc(-c2nc(NC(=O)Nc3ccccc3)sc2-c2ccc(Cl)cc2)cc1`, for which the inhibition in the assay listed under Rattus norvegicus amounted to 9.58%.
